Experimental data taken from patent US10829796B2, “Bacteria identification and antimicrobial susceptibility test” (priority 2015, dated 2020).

Tested on: bacteria in clinical bovine mastitis milk samples
Test: Combined bacteria identification and antimicrobial susceptibility test (colour of wells, MIC) on clinical bovine mastitis milk samples
Assay type: cell-based
Description: Clinical bovine mastitis milk samples were collected by a vet clinic in South Island, New Zealand. Samples were stored in the freezer for several months and shipped frozen to the testing facility. In this Example, the term “clinical” means that dairy cows had clinical symptoms of an udder infection e.g. cow behaved unusual, milk clots, swollen udder among other typical symptoms. Testing was executed in microwell plate comprising of 24 wells (3×8 wells).
In addition, 20 ul of clinical mastitis sample was added to each well with a laboratory pipette.
Abbreviations • 1. 80 ul GC+10 ul Tell: 80 ul Giolitti Cantoni base broth+10 ul Tellurite solution (1%); • 2. 80 ul TSB/Esc/Fer Cit: 80 ul Tryptic soy broth containing 0.25% Esculin and 0.125% Ammonium Ferric Citrate; • 3. 80 ul TSB/Esc/Fer Cit+10 ul Genta: 80 ul Tryptic soy broth containing 0.25% Esculin and 0.125% Ammonium Ferric Citrate+10 ul of Gentamycin solution 10 mg/ml; • 4. 80 ul McC/PR25: 80 ul MacConkey broth (single strength) containing 0.0125% phenol red; and • 5. 80 ul TSB/PR25: 80 ul Tryptic soy broth containing 0.0125% phenol red. Bacteria Identification
Columns A to C and rows 1 and 2 were used for bacteria identification. A1: coagulase positive Staph; A2: Staphylococci; B1: Strep group D; B2: Strep group D; C1: general enrichment media (gram+ and gram-bacteria); C2: coliform bacteria.
Column A3 to A8: serial dilution of benzyl penicillin as potassium. Column B3 to B8: serial dilution of ceftiofur as hydrochloride. Column C3 to C8: serial dilution of cloxacillin as sodium. Antibiotic concentrations are listed as free form ranging between 4 ug/ml to 0.05 ug/ml.
Minimum inhibitory substance concentration (MIC) is here defined as the concentration if a colour change occurs between two wells (one well remains red with drug concentration 1, the other one yellow with drug concentration 2, whereas drug concentration 1 is larger than drug concentration 2) then the MIC is the value of drug concentration 1.
Table 21 indicates the microwell plate configuration #1; Drugs: Benzylpenicillin as potassium; Cloxacillin as sodium; Ceftiofur as hydrochloride; Drug concentration in each well (A3 to C8) is based on 80 μl composition+10 μl drug solution+20 μl clinical mastitis milk sample and equivalent to listed drug concentration in μg/ml; 20 ul of clinical bovine mastitis milk sample was added to each well (A1 to C8).
In addition, each well received one drop of clinical sample from a transfer pipette which was on average about 35 mg. This was determined through weighing the well plate prior and after the addition of clinical mastitis samples. This weight was then divided by 24.
• 1. 80 ul GC+10 ul Tell: 80 ul Giolitti Cantoni base broth+10 ul Tellurite solution (1%); • 2. 80 ul TSB/Esc/Fer Cit: 80 ul Tryptic soy broth containing 0.25% Esculin and 0.125% Ammonium Ferric Citrate; • 3. 80 ul TSB/Esc/Fer Cit+10 ul Genta: 80 ul Tryptic soy broth containing 0.25% Esculin and 0.125% Ammonium Ferric Citrate+10 ul of Gentamycin solution 10 mg/ml; • 4. 80 ul McC/PR25: 80 ul MacConkey broth (single strength) containing 0.0125% phenol red; and • 5. 80 ul TSB/PR25: 80 ul Tryptic soy broth containing 0.0125% phenol red.
Columns A to C and rows 1 and 2 were used for bacteria identification. A1: coagulase positive Staph; A2: Staphylococci; B1: Strep Group D; B2: -; C1: general enrichment media (gram+ and gram-); C2: coliform bacteria.
Column A3 to A8: serial dilution of benzyl penicillin as potassium. Drug concentrations given as free form ranging between 4 ug/ml to 0.05 ug/ml. Column B3 to B8: serial dilution of ceftiofur as hydrochloride. Drug concentrations given as free form ranging between 4 ug/ml to 0.05 ug/ml. Column C3 to C8: serial dilution of cloxacillin as sodium. Drug concentrations given as free form ranging between 4 ug/ml to 0.05 ug/ml.

Measured: Colour of media in each well

Cc1onc(-c2ccccc2Cl)c1C(=O)N[C@@H]1C(=O)N2[C@@H]1SC(C)(C)[C@@H]2C(=O)O [cloxacillin]
yellow: ID 1, T = 22 h, 37° C., plate configuration #1, drug 0.05 μg/ml | ID 1, T = 22 h, 37° C., plate configuration #1, drug 0.1 μg/ml | ID 2, T = 48 h, 37° C., plate configuration #1, drug 0.05 μg/ml | ID 2, T = 48 h, 37° C., plate configuration #1, drug 0.1 μg/ml | ID 3, T = 22 h, 37° C., plate configuration #1, drug 0.05 μg/ml | ID 3, T = 22 h, 37° C., plate configuration #1, drug 0.1 μg/ml | ID 3, T = 22 h, 37° C., plate configuration #1, drug 2 μg/ml | ID 3, T = 22 h, 37° C., plate configuration #1, drug 4 μg/ml | ID 3, T = 23 h, 37° C., Table 34, drug 0.05 μg/ml | ID 3, T = 23 h, 37° C., Table 34, drug 0.1 μg/ml | ID 3, T = 23 h, 37° C., Table 34, drug 2 μg/ml | ID 3, T = 23 h, 37° C., Table 34, drug 4 μg/ml | ID 4, T = 22 h, 37° C., plate configuration #1, drug 0.05 μg/ml | ID 4, T = 22 h, 37° C., plate configuration #1, drug 0.1 μg/ml | ID 5, T = 23 h, 37° C., plate configuration #2, drug 0.05 μg/ml | ID 5, T = 23 h, 37° C., plate configuration #2, drug 0.1 μg/ml
red: ID 1, T = 22 h, 37° C., plate configuration #1, drug 0.5 μg/ml | ID 1, T = 22 h, 37° C., plate configuration #1, drug 1 μg/ml | ID 1, T = 22 h, 37° C., plate configuration #1, drug 2 μg/ml | ID 1, T = 22 h, 37° C., plate configuration #1, drug 4 μg/ml | ID 2, T = 48 h, 37° C., plate configuration #1, drug 0.5 μg/ml | ID 2, T = 48 h, 37° C., plate configuration #1, drug 1 μg/ml | ID 2, T = 48 h, 37° C., plate configuration #1, drug 2 μg/ml | ID 2, T = 48 h, 37° C., plate configuration #1, drug 4 μg/ml | ID 3, T = 22 h, 37° C., plate configuration #1, drug 0.5 μg/ml | ID 3, T = 22 h, 37° C., plate configuration #1, drug 1 μg/ml | ID 3, T = 23 h, 37° C., Table 34, drug 0.5 μg/ml | ID 3, T = 23 h, 37° C., Table 34, drug 1 μg/ml | ID 3, T~7 h, 37° C., Table 34, drug 0.05 μg/ml | ID 3, T~7 h, 37° C., Table 34, drug 0.1 μg/ml | ID 3, T~7 h, 37° C., Table 34, drug 0.5 μg/ml | ID 3, T~7 h, 37° C., Table 34, drug 1 μg/ml | ID 3, T~7 h, 37° C., Table 34, drug 2 μg/ml | ID 3, T~7 h, 37° C., Table 34, drug 4 μg/ml | ID 3, T~11 h, 37° C., Table 34, drug 0.05 μg/ml | ID 3, T~11 h, 37° C., Table 34, drug 0.1 μg/ml | ID 3, T~11 h, 37° C., Table 34, drug 0.5 μg/ml | ID 3, T~11 h, 37° C., Table 34, drug 1 μg/ml | ID 3, T~11 h, 37° C., Table 34, drug 2 μg/ml | ID 3, T~11 h, 37° C., Table 34, drug 4 μg/ml | ID 4, T = 22 h, 37° C., plate configuration #1, drug 0.5 μg/ml | ID 4, T = 22 h, 37° C., plate configuration #1, drug 1 μg/ml | ID 4, T = 22 h, 37° C., plate configuration #1, drug 2 μg/ml | ID 4, T = 22 h, 37° C., plate configuration #1, drug 4 μg/ml | ID 5, T = 23 h, 37° C., plate configuration #2, drug 0.5 μg/ml | ID 5, T = 23 h, 37° C., plate configuration #2, drug 1 μg/ml | ID 5, T = 23 h, 37° C., plate configuration #2, drug 2 μg/ml | ID 5, T = 23 h, 37° C., plate configuration #2, drug 4 μg/ml | ID 5 to 8, T = 0 h (prior incubation, reference), plate configuration #2, drug 0.05 μg/ml | ID 5 to 8, T = 0 h (prior incubation, reference), plate configuration #2, drug 0.1 μg/ml | ID 5 to 8, T = 0 h (prior incubation, reference), plate configuration #2, drug 0.5 μg/ml
